Experimental data reported in the supplement of paper PMC4862054.

Legend:
Conditions in all cases: incubation time: 72 h
MDA-MB-231 [1] = experiment: normalised response (% of control), CellTox Green; higher = less cell death (100 = DMSO, 0 = benzethonium chloride kill control)
Procedure, shortened: (§1)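 CellTox Green fluorescence (485/520 nm) and, after 10 min at room temperature, CellTiter-Glo luminescence were read from breast cancer cell lines incubated 72 h in 384-well plates. Cells were seeded as 20 µl suspension onto compound at 5 concentrations in 10-fold steps over a 10,000-fold range chosen per compound. Each plate was normalised to 0.1 % DMSO (100) and a positive kill control (0). Values are normalised signals, one per concentration.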

Hs578T [2] = experiment: as above
Procedure, shortened: as §1

HCC1599 [3] = experiment: as above
Procedure, shortened: as §1

MDA-MB-436 [4] = experiment: as above
Procedure, shortened: as §1

BT-549 [5] = experiment: as above
Procedure, shortened: as §1

MDA-MB-453 [6] = experiment: as above
Procedure, shortened: as §1

DU-4475 [7] = experiment: as above
Procedure, shortened: as §1

MFM-223 [8] = experiment: as above
Procedure, shortened: as §1

MDA-MB-468 [9] = experiment: as above
Procedure, shortened: as §1

MCF-10A [10] = experiment: as above
Procedure, shortened: as §1

HDQ-P1 [11] = experiment: as above
Procedure, shortened: as §1

CAL-51 [12] = experiment: as above
Procedure, shortened: as §1

CAL-148 [13] = experiment: as above
Procedure, shortened: as §1

HCC1937 [14] = experiment: as above
Procedure, shortened: as §1

BT-474 [15] = experiment: as above
Procedure, shortened: as §1

CAL-120 [16] = experiment: as above
Procedure, shortened: as §1

CAL-85-1 [17] = experiment: as above
Procedure, shortened: as §1

MDA-MB-231 [18] = experiment: normalised response (% of control), CellTiter-Glo; higher = more viable cells (100 = DMSO, 0 = benzethonium chloride kill control)
Description: (§2)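 DSRT, 72 h incubation, CellTox Green / CellTiter-Glo readout. Signal is normalised to DMSO and benzethonium chloride controls. Value is the normalised response at dose 3.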

Hs578T [19] = experiment: as above
Description: as §2

HCC1599 [20] = experiment: as above
Description: as §2

MDA-MB-436 [21] = experiment: as above
Description: as §2

BT-549 [22] = experiment: as above
Description: as §2

MDA-MB-453 [23] = experiment: as above
Description: as §2

DU-4475 [24] = experiment: as above
Description: as §2

MFM-223 [25] = experiment: as above
Description: as §2

MDA-MB-468 [26] = experiment: as above
Description: as §2

MCF-10A [27] = experiment: as above
Description: as §2

HDQ-P1 [28] = experiment: as above
Description: as §2

CAL-51 [29] = experiment: as above
Description: as §2

CAL-148 [30] = experiment: as above
Description: as §2

HCC1143 [31] = experiment: as above
Description: as §2

HCC1937 [32] = experiment: as above
Description: as §2

BT-474 [33] = experiment: as above
Description: as §2

CAL-120 [34] = experiment: as above
Description: as §2

CAL-85-1 [35] = experiment: as above
Description: as §2

SK-BR-3 = experiment: as above
Description: as §2

HCC1143 [36] = experiment: normalised response (% of control), CellTox Green; higher = less cell death (100 = DMSO, 0 = benzethonium chloride kill control)
Procedure, shortened: as §1

Structure (SMILES)	normalised response (MDA-MB-231 [1]) [%]	normalised response (Hs578T [2]) [%]	normalised response (HCC1599 [3]) [%]	normalised response (MDA-MB-436 [4]) [%]	normalised response (BT-549 [5]) [%]	normalised response (MDA-MB-453 [6]) [%]	normalised response (DU-4475 [7]) [%]	normalised response (MFM-223 [8]) [%]	normalised response (MDA-MB-468 [9]) [%]	normalised response (MCF-10A [10]) [%]	normalised response (HDQ-P1 [11]) [%]	normalised response (CAL-51 [12]) [%]	normalised response (CAL-148 [13]) [%]	normalised response (HCC1937 [14]) [%]	normalised response (BT-474 [15]) [%]	normalised response (CAL-120 [16]) [%]	normalised response (CAL-85-1 [17]) [%]	normalised response (MDA-MB-231 [18]) [%]	normalised response (Hs578T [19]) [%]	normalised response (HCC1599 [20]) [%]	normalised response (MDA-MB-436 [21]) [%]	normalised response (BT-549 [22]) [%]	normalised response (MDA-MB-453 [23]) [%]	normalised response (DU-4475 [24]) [%]	normalised response (MFM-223 [25]) [%]	normalised response (MDA-MB-468 [26]) [%]	normalised response (MCF-10A [27]) [%]	normalised response (HDQ-P1 [28]) [%]	normalised response (CAL-51 [29]) [%]	normalised response (CAL-148 [30]) [%]	normalised response (HCC1143 [31]) [%]	normalised response (HCC1937 [32]) [%]	normalised response (BT-474 [33]) [%]	normalised response (CAL-120 [34]) [%]	normalised response (CAL-85-1 [35]) [%]	normalised response (SK-BR-3) [%]	normalised response (HCC1143 [36]) [%]
CN(C)C/C=C/C(=O)Nc1cc2c(Nc3ccc(F)c(Cl)c3)ncnc2cc1O[C@H]1CCOC1 [Afatinib] (10 nM)	96.5	97.6	109	96.1	67.8	82.9	97.6	69	70.8	12.3	101	109	97.5	113	95.2	95.5	94.8	99.3	101	118	96	112	88.6	106	104	98.1	59.3	81.2	87.7	97.9	106	97.6	98.9	94	97	64.6	–
CN1CC[C@H](c2c(O)cc(O)c3c(=O)cc(-c4ccccc4Cl)oc23)[C@H](O)C1 [Alvocidib] (100 nM)	69	–	108	69.6	101	106	96.8	106	111	91.8	92.7	102	103	113	98.4	97.2	91.1	90.8	103	108	75.9	95.5	122	94.1	96.9	91.9	100	86.5	81.3	100	102	99.2	85.8	86.2	104	87.8	114
Nc1nc(Cl)nc2c1ncn2[C@H]1C[C@H](O)[C@@H](CO)O1 [Cladribine] (10 nM)	109	–	95	–	97.8	58.9	102	104	–	102	62.4	106	80.9	88.3	100	102	107	100	101	106	102	105	105	102	104	102	99.5	95.8	84.4	99.5	101	92.6	99.6	102	101	108	53.3
COc1cccc2c1C(=O)c1c(O)c3c(c(O)c1C2=O)C[C@@](O)(C(=O)CO)C[C@@H]3O[C@H]1C[C@H](N)[C@H](O)[C@H](C)O1 [Doxorubicin] (10 nM)	–	111	118	94.8	82.1	105	101	107	91.5	90	110	107	107	91.2	98	96.7	100	104	106	98.8	92.5	103	106	104	108	106	98.4	102	91.8	111	109	101	103	98.1	103	107	112
